Literature values in article PMC10582678 (Clinical and Translational Science, 2023).
Where two headings read alike, the source gives them in different places.

Target: BTK (Homo sapiens, UniProt Q06187)
Details: cited from earlier work

BTK, sequence (Q06187 whole entry): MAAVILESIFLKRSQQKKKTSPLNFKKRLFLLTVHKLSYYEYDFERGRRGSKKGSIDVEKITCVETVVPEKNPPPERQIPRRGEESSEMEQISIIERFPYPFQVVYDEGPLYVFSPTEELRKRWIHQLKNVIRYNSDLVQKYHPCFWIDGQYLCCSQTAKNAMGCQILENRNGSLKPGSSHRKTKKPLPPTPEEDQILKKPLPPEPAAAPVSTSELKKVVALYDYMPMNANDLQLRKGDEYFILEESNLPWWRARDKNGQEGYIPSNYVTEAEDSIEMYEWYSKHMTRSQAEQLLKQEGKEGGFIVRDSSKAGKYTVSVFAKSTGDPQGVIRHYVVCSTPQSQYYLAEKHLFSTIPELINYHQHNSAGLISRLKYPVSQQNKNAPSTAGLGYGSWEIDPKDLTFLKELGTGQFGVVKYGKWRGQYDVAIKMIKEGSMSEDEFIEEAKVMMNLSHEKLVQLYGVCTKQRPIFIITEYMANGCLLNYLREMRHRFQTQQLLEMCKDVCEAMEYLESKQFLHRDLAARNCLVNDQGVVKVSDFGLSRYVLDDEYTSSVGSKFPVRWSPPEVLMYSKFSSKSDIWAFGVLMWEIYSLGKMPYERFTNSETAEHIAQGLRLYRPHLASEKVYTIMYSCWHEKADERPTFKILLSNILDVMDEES

Row | Structure (SMILES) | BTK receptor occupancy rate (twice daily dosing regimen) [%] | BTK receptor occupancy rate (b.i.d., patients with rheumatoid arthritis) [%]
1 | CC#CC(=O)N1CCC[C@H]1c1nc(-c2ccc(C(=O)Nc3ccccn3)cc2)c2c(N)nccn12 [acalabrutinib] | 96 | 
2 | C=CC(=O)Nc1cccc(Nc2nc(Nc3ccc(OCCOC)cc3)ncc2F)c1 [spebrutinib] |  | 88
